Measurements reported in patent US12077503B2, “Substituted cyclic amides and their use as herbicides” (FMC CORPORATION, priority 2015, dated 2024).

Key:
Type in all cases: in vivo
[1] = tested on: giant foxtail (Setaria faberi); test: Test G Post-Emergence Protocol; details: Setaria faberi, post-emergence, 312 h, read-out: Foxtail, Giant damage rating; for pest or weed control at 15.625 g/ha: 15.625 g ai/ha, evaluated after 13 days (100=total damage to plant; 0=no damage to plant); for pest or weed control at 62.5 g/ha: 62.5 g ai/ha; for pest or weed control at 62.5 g/ha / pest or weed control at 250 g/ha: evaluated after 13 days, 100=total damage to plant, 0=no damage to plant; for pest or weed control at 250 g/ha: 250 g ai/ha
How it was run: (§1)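 A glasshouse post-emergence test: 8-day-old plants sprayed at 15.625, 62.5 or 250 g/ha, then grown at 24/16 °C day/night with 14 h light and 65% humidity. Damage rated 13 days later, 0–100.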

[2] = tested on: redroot pigweed (Amaranthus retroflexus); test: Test G Post-Emergence Protocol; details: Amaranthus retroflexus, post-emergence, 312 h, read-out: Pigweed, Redroot damage rating; for pest or weed control at 15.625 g/ha: 15.625 g ai/ha, evaluated after 13 days (100=total damage to plant; 0=no damage to plant); for pest or weed control at 62.5 g/ha: 62.5 g ai/ha; for pest or weed control at 62.5 g/ha / pest or weed control at 250 g/ha: evaluated after 13 days, 100=total damage to plant, 0=no damage to plant; for pest or weed control at 250 g/ha: 250 g ai/ha
How it was run: as §1

[3] = tested on: velvetleaf (Abutilon theophrasti); test: Test G Post-Emergence Protocol; details: Abutilon theophrasti, post-emergence, 312 h, read-out: Velvetleaf damage rating; for pest or weed control at 15.625 g/ha: 15.625 g ai/ha, evaluated after 13 days (100=total damage to plant; 0=no damage to plant); for pest or weed control at 62.5 g/ha: 62.5 g ai/ha; for pest or weed control at 62.5 g/ha / pest or weed control at 250 g/ha: evaluated after 13 days, 100=total damage to plant, 0=no damage to plant; for pest or weed control at 250 g/ha: 250 g ai/ha
How it was run: as §1

[4] = tested on: barnyardgrass (Echinochloa crus-galli); test: Test G Post-Emergence Protocol; details: Echinochloa crus-galli, post-emergence, 312 h, read-out: Barnyardgrass damage rating; for pest or weed control at 15.625 g/ha: 15.625 g ai/ha, evaluated after 13 days (100=total damage to plant; 0=no damage to plant); for pest or weed control at 62.5 g/ha: 62.5 g ai/ha; for pest or weed control at 62.5 g/ha / pest or weed control at 250 g/ha: evaluated after 13 days, 100=total damage to plant, 0=no damage to plant; for pest or weed control at 250 g/ha: 250 g ai/ha
How it was run: as §1

corn (Zea mays) [5] = test: Test G Post-Emergence Protocol; details: Zea mays, post-emergence, 312 h, read-out: Corn damage rating; for plant injury at 15.625 g/ha: 15.625 g ai/ha, evaluated after 13 days (100=total damage to plant; 0=no damage to plant); for plant injury at 62.5 g/ha: 62.5 g ai/ha; for plant injury at 62.5 g/ha / plant injury at 250 g/ha: evaluated after 13 days, 100=total damage to plant, 0=no damage to plant; for plant injury at 250 g/ha: 250 g ai/ha
How it was run: as §1

[6] = tested on: ivy-leaved morning glory (Ipomoea hederacea); test: Test G Post-Emergence Protocol; details: Ipomoea, post-emergence, 312 h, read-out: Morningglory, Ivy-leaved damage rating; for pest or weed control at 15.625 g/ha: 15.625 g ai/ha, evaluated after 13 days (100=total damage to plant; 0=no damage to plant); for pest or weed control at 62.5 g/ha: 62.5 g ai/ha; for pest or weed control at 62.5 g/ha / pest or weed control at 250 g/ha: evaluated after 13 days, 100=total damage to plant, 0=no damage to plant; for pest or weed control at 250 g/ha: 250 g ai/ha
How it was run: as §1

[7] = tested on: giant foxtail (Setaria faberi); test: Test G Pre-Emergence Protocol; details: Setaria faberi, pre-emergence, 312 h, evaluated after 13 days; for pest or weed control at 15.625 g/ha: 15.625 g ai/ha; for pest or weed control at 15.625 g/ha / pest or weed control at 250 g/ha: read-out: Foxtail, Giant damage rating (100=total damage to plant; 0=no damage to plant); for pest or weed control at 62.5 g/ha: 62.5 g ai/ha, 100=total damage to plant, 0=no damage to plant, read-out: Foxtail, Giant damage rating; for pest or weed control at 250 g/ha: 250 g ai/ha
How it was run: (§2)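 Pre-emergence spray, 15.625/62.5/250 g/ha, vehicle acetone:water 50:50 + 0.5% Tween 20, applied 1 d after sowing. Glasshouse 24/16° C, 14 h light, 65% RH, watered twice daily. Visual damage rating at 13 d, 0–100 scale.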

[8] = tested on: redroot pigweed (Amaranthus retroflexus); test: Test G Pre-Emergence Protocol; details: Amaranthus retroflexus, pre-emergence, 312 h, evaluated after 13 days; for pest or weed control at 15.625 g/ha: 15.625 g ai/ha; for pest or weed control at 15.625 g/ha / pest or weed control at 250 g/ha: read-out: Pigweed, Redroot damage rating (100=total damage to plant; 0=no damage to plant); for pest or weed control at 62.5 g/ha: 62.5 g ai/ha, 100=total damage to plant, 0=no damage to plant, read-out: Pigweed, Redroot damage rating; for pest or weed control at 250 g/ha: 250 g ai/ha
How it was run: as §2

[9] = tested on: velvetleaf (Abutilon theophrasti); test: Test G Pre-Emergence Protocol; details: Abutilon theophrasti, pre-emergence, 312 h, evaluated after 13 days; for pest or weed control at 15.625 g/ha: 15.625 g ai/ha; for pest or weed control at 15.625 g/ha / pest or weed control at 250 g/ha: read-out: Velvetleaf damage rating (100=total damage to plant; 0=no damage to plant); for pest or weed control at 62.5 g/ha: 62.5 g ai/ha, 100=total damage to plant, 0=no damage to plant, read-out: Velvetleaf damage rating; for pest or weed control at 250 g/ha: 250 g ai/ha
How it was run: as §2

[10] = tested on: barnyardgrass (Echinochloa crus-galli); test: Test G Pre-Emergence Protocol; details: Echinochloa crus-galli, pre-emergence, 312 h, evaluated after 13 days; for pest or weed control at 15.625 g/ha: 15.625 g ai/ha; for pest or weed control at 15.625 g/ha / pest or weed control at 250 g/ha: read-out: Barnyardgrass damage rating (100=total damage to plant; 0=no damage to plant); for pest or weed control at 62.5 g/ha: 62.5 g ai/ha, 100=total damage to plant, 0=no damage to plant, read-out: Barnyardgrass damage rating; for pest or weed control at 250 g/ha: 250 g ai/ha
How it was run: as §2

corn (Zea mays) [11] = test: Test G Pre-Emergence Protocol; details: Zea mays, pre-emergence, 312 h, evaluated after 13 days; for plant injury at 15.625 g/ha: 15.625 g ai/ha; for plant injury at 15.625 g/ha / plant injury at 250 g/ha: read-out: Corn damage rating (100=total damage to plant; 0=no damage to plant); for plant injury at 62.5 g/ha: 62.5 g ai/ha, 100=total damage to plant, 0=no damage to plant, read-out: Corn damage rating; for plant injury at 250 g/ha: 250 g ai/ha
How it was run: as §2

[12] = tested on: ivy-leaved morning glory (Ipomoea hederacea); test: Test G Pre-Emergence Protocol; details: Ipomoea, pre-emergence, 312 h, evaluated after 13 days; for pest or weed control at 15.625 g/ha: 15.625 g ai/ha; for pest or weed control at 15.625 g/ha / pest or weed control at 250 g/ha: read-out: Morningglory, Ivy-leaved damage rating (100=total damage to plant; 0=no damage to plant); for pest or weed control at 62.5 g/ha: 62.5 g ai/ha, 100=total damage to plant, 0=no damage to plant, read-out: Morningglory, Ivy-leaved damage rating; for pest or weed control at 250 g/ha: 250 g ai/ha
How it was run: as §2

SMILES	pest or weed control at 15.625 g/ha [1] [%]	pest or weed control at 62.5 g/ha [1] [%]	pest or weed control at 250 g/ha [1] [%]	pest or weed control at 15.625 g/ha [2] [%]	pest or weed control at 62.5 g/ha [2] [%]	pest or weed control at 250 g/ha [2] [%]	pest or weed control at 15.625 g/ha [3] [%]	pest or weed control at 62.5 g/ha [3] [%]	pest or weed control at 250 g/ha [3] [%]	pest or weed control at 15.625 g/ha [4] [%]	pest or weed control at 62.5 g/ha [4] [%]	pest or weed control at 250 g/ha [4] [%]	plant injury at 15.625 g/ha (corn (Zea mays) [5]) [%]	plant injury at 62.5 g/ha (corn (Zea mays) [5]) [%]	plant injury at 250 g/ha (corn (Zea mays) [5]) [%]	pest or weed control at 15.625 g/ha [6] [%]	pest or weed control at 62.5 g/ha [6] [%]	pest or weed control at 250 g/ha [6] [%]	pest or weed control at 15.625 g/ha [7] [%]	pest or weed control at 62.5 g/ha [7] [%]	other results
CN1C[C@H](c2cccc(C(F)(F)F)c2)[C@@H](C(=O)Nc2cnccc2[S+](C)[O-])C1=O (mixture of isomers) [Compound 1752]	0	0	0	0	0	0	0	0	0	0	0	0	0	0	0	0	0	0	0	0	pest or weed control at 250 g/ha [7]: 20%; pest or weed control at 15.625 g/ha [8]: 0%; pest or weed control at 62.5 g/ha [8]: 0%; pest or weed control at 250 g/ha [8]: 0%; pest or weed control at 15.625 g/ha [9]: 0%; pest or weed control at 62.5 g/ha [9]: 0%; pest or weed control at 250 g/ha [9]: 0%; pest or weed control at 15.625 g/ha [10]: 0%; pest or weed control at 62.5 g/ha [10]: 0%; pest or weed control at 250 g/ha [10]: 20%; plant injury at 15.625 g/ha (corn (Zea mays) [11]): 0%; plant injury at 62.5 g/ha (corn (Zea mays) [11]): 0%; plant injury at 250 g/ha (corn (Zea mays) [11]): 0%; pest or weed control at 15.625 g/ha [12]: 0%; pest or weed control at 62.5 g/ha [12]: 0%; pest or weed control at 250 g/ha [12]: 0%
CN1C[C@H](c2ccc(C(F)(F)F)cc2)[C@@H](C(=O)Nc2cccnc2[S+](C)[O-])C1=O (mixture of isomers) [Compound 1788]	0	0	0	0	10	20	0	10	20	0	0	0	0	10	10	0	0	40	0	0	pest or weed control at 250 g/ha [7]: 0%; pest or weed control at 15.625 g/ha [8]: 0%; pest or weed control at 62.5 g/ha [8]: 0%; pest or weed control at 250 g/ha [8]: 0%; pest or weed control at 15.625 g/ha [9]: 0%; pest or weed control at 62.5 g/ha [9]: 0%; pest or weed control at 250 g/ha [9]: 0%; pest or weed control at 15.625 g/ha [10]: 0%; pest or weed control at 62.5 g/ha [10]: 0%; pest or weed control at 250 g/ha [10]: 20%; plant injury at 15.625 g/ha (corn (Zea mays) [11]): 0%; plant injury at 62.5 g/ha (corn (Zea mays) [11]): 0%; plant injury at 250 g/ha (corn (Zea mays) [11]): 0%; pest or weed control at 15.625 g/ha [12]: 0%; pest or weed control at 62.5 g/ha [12]: 0%; pest or weed control at 250 g/ha [12]: 0%
CN1C[C@H](c2ccc(C(F)(F)F)cc2)[C@@H](C(=O)Nc2cccc(Cl)c2S(C)(=O)=O)C1=O (racemic) [Compound 1661]	0	60	60	0	20	40	0	0	10	0	20	10	0	0	0	0	0	0	0	50	pest or weed control at 250 g/ha [7]: 80%; pest or weed control at 15.625 g/ha [8]: 0%; pest or weed control at 62.5 g/ha [8]: 0%; pest or weed control at 250 g/ha [8]: 20%; pest or weed control at 15.625 g/ha [9]: 0%; pest or weed control at 62.5 g/ha [9]: 0%; pest or weed control at 250 g/ha [9]: 0%; pest or weed control at 15.625 g/ha [10]: 0%; pest or weed control at 62.5 g/ha [10]: 0%; pest or weed control at 250 g/ha [10]: 0%; plant injury at 15.625 g/ha (corn (Zea mays) [11]): 0%; plant injury at 62.5 g/ha (corn (Zea mays) [11]): 0%; plant injury at 250 g/ha (corn (Zea mays) [11]): 10%; pest or weed control at 15.625 g/ha [12]: 0%; pest or weed control at 62.5 g/ha [12]: 0%; pest or weed control at 250 g/ha [12]: 10%
